According to the RepoRT retention time repository:

Assay: Agilent ZORBAX 300 SB-C18, 150 × 1 mm, 3.5 µm; A: water + 0.01% heptafluorobutyric acid; B: acetonitrile + 0.01% heptafluorobutyric acid; gradient (min/%B) 0/0 100/90
Conditions: stereoisomer not certain

In order of rising LC retention time:
1. Cn1c(=O)cc(C(=O)O)[nH]c1=O  1.57 min
2. c1nc[nH]n1  1.93 min
3. Cc1nn[nH]n1  2.16 min
4. NCC(=O)CCC(=O)O  3.25 min
5. CC(N)(CO)CO  3.29 min
6. CC(C)(N)CO  4.39 min
7. CNCC1COCCO1 (stereo not drawn)  5.78 min
8. O=C(O)c1c2c(nc3ccccc13)CCCC2  5.96 min
9. NC(=O)Cc1ccc(O)cc1  5.97 min
10. NCCCCCCO  6.25 min
11. CC(=O)NNc1nc(C)cc(C)n1  6.5 min
12. Nc1ccccc1C(=O)N1CCNC(=O)C1  6.83 min
13. Nc1cccc(C2=NCCN2)c1  6.85 min
14. CCc1cccnc1  6.88 min
15. NC1CCCCC1N (stereo not drawn)  7.01 min
16. CNC(=S)C(=S)NC  7.06 min
17. CC(C)NCCNC(C)C  7.16 min
18. O=c1[nH]c2ccccc2[nH]c1=S  7.24 min
19. CNC(C)c1ccccc1 (stereo not drawn)  7.92 min
20. CNCCc1ccccc1  7.97 min
21. CC(NC(=O)c1ccccc1)C(=O)O (stereo not drawn)  8 min
22. CNCc1cccc(C)c1  8.02 min
23. CC(C)Nc1ccccc1  8.04 min
24. Nc1ccccc1NC(=O)Nc1ccccc1N  8.05 min
25. Cc1[nH]n(-c2ccccc2)c(=O)c1C=O  8.21 min
26. Cc1cc(C)c2cccc(C)c2n1  8.65 min
27. CCOC1CCC2CC3C4CCC(O)C5OC1C2C45CCN3C (stereo not drawn)  8.78 min
28. CCC(O)(CC)c1ccccc1N  8.79 min
29. c1cc(-c2noc(-c3cnccn3)n2)ccn1  8.8 min
30. CCN1C(=O)CC(N2CCC(n3c(=O)[nH]c4ccccc43)CC2)C1=O (stereo not drawn)  8.81 min
31. CNC(=S)N1CCCCC1  8.86 min
32. c1ccc(CCN(Cc2ccncc2)Cc2ccccn2)cc1  8.96 min
33. O=C(NN=Cc1ccccc1)c1ccncc1  8.96 min
34. CC1CC(C)(C)Nc2c(O)cccc21 (stereo not drawn)  8.99 min
35. O=C1CCN(c2ccccc2)N1  9.05 min
36. O=C1C=C(O)C(=O)C1c1ccccc1 (stereo not drawn)  9.39 min
37. CC1(C)CC(NC(=O)C(=O)NCCc2ccccc2)CC(C)(C)N1  9.44 min
38. CCOC(=O)C1(c2ccccc2)CCN(C)CC1  9.81 min
39. CC(C)CNC(=O)C(=O)Nc1ccc(N(C)C)cc1  9.98 min
40. Cc1ccc2[nH]cc(C=O)c2c1  9.98 min
41. Nc1ccccc1C(=O)NN=C1CCCC1  10.1 min
42. CC(N)Cc1ccc2oc3ccccc3c2c1 (stereo not drawn)  10.1 min
43. COc1ccc(NC(=O)c2ccc(N3C(=O)CCC3=O)cc2)cc1  10.3 min
44. CN(C)c1ccc(C(=O)N2CCCC2)cc1  10.4 min
45. Cc1ccc2nc(-c3nn[nH]n3)ccc2c1  10.5 min
46. c1ccc(-n2ncc(-c3nn[nH]n3)n2)cc1  10.5 min
47. CCNC(=S)NNC(=S)NCc1ccccc1  10.9 min
48. CCNC(=S)NCCc1c[nH]c2ccccc12  11.2 min
49. OC(CCN1CCCC1)(c1ccccc1)C1CCCCC1 (stereo not drawn)  11.5 min
50. O=C(O)Cn1c(=O)c(-c2ccccc2)nc2ccccc21  11.8 min
51. O=C(O)CCc1ccc(-c2ccccc2)[nH]1  11.9 min
52. Cc1ccc(C(=O)NCCn2cccc2)cc1  11.9 min
53. CC(=O)Oc1ccc2cccc(N(C(C)=O)C(C)=O)c2c1  12 min
54. O=C(NC(c1ccccc1)c1ccccc1)c1cccnc1  12.1 min
55. CCCCCCCCC(N)=O  12.4 min
56. CCCCC1CCC(C(=O)NCC2(N(C)C)CCCCC2)CC1 (stereo not drawn)  12.4 min
57. CCOC(=O)c1ccc(N(CC)CC)cc1  12.5 min
58. Cc1nc2ccccc2nc1CSc1cccc2cccnc12  12.8 min
59. Cc1ccc(CNC(=S)Nc2ccccc2)n1C  13.1 min
60. CCc1ccc(C2Nc3ccccc3C(=O)N2c2ccc(N(C)C)cc2)cc1 (stereo not drawn)  13.7 min
61. CC1=Nc2ccccc2Sc2ccccc21  14.5 min
62. c1ccc2c(c1)[nH]c1ccccc12  14.6 min
63. Cc1ccc(NC(=O)Cn2c(=O)c3c(C)cc(C)nc3n(-c3ccccc3)c2=O)c(C)c1  15.2 min
64. O=C(NCCc1ccco1)c1cccc2c1oc1ccccc12  15.7 min
65. O=C(OCC(c1ccccc1)c1ccccc1)c1cccnc1  15.9 min
66. CC(C)(C)c1ccc2[nH]c3c(c2c1)CCCC3=O  16.5 min
67. CCC(c1ccc(C)cc1)N(NC(=O)C(O)(c1ccc(C)cc1)c1ccc(C)cc1)C(=O)c1ccccc1 (stereo not drawn)  18.3 min
68. O=C(Nc1ccc2c(c1)oc1ccccc12)c1ccc(C2CCCCC2)cc1  20.1 min
